# Assay results published in patent US9308182B2 (TEVA PHARMACEUTICAL INDUSTRIES, LTD., priority 2012, dated 2016).
# Read-outs that look alike come from different tables or passages of the source.
# Tests used:
# MAO-A = MAO-A (Rattus norvegicus, UniProt P21396); assay: in vivo; details: rat, sc
# Excerpt: (§1) ALZET® osmotic minipumps are described in Perkins L, Peer C, and Murphy-Hackley P. “Chapter 21: The use of mini-osmotic pumps in continuous infusion studies” in Handbook of Pre-Clinical Continuous Intravenous Infusion, (Smith & Healing, eds., Taylor and Francis, 2000), the contents of which are incorporated herein by reference.
# (§2) The osmotic minipumps were inserted subcutaneously with a single surgical procedure: after clipping the fur from the dorsal area and cleaning the skin with antiseptic skin preparation, about 1 cm long incision was made on the dorsum of the animal, midway between both scappulae. The pump was placed along the axis of the body to one side of the backbone. The incision was positioned about 1-2 cm caudal to the estimated caudal end of the minipump when it is in place.
# (§3) After two weeks of treatment the animals were sacrificed. From each rat, brain (half) and a part of liver were dissected and frozen. The intestine was excised about ½ cm below the stomach about 1-2 cm long, washed with sucrose 0.32 Molar and frozen at −70° C.
# (§4) Tissue homogenates were pre incubated (37° C.) in the presence of clorgyline or deprenyl to inhibit the activity of MAO-A or MAO-B respectively. For MAO-B determination, samples were incubated for 20 minutes with C^14 PEA 10 μM and for MAO-A determination samples were incubated 30 minutes with C^14 −5HT 100 μM as substrate Termination of the reaction was done by acidification. The labeled metabolites were extracted into toluene:ethyl acetate, and counted in a β counter.
# MAO-B = MAO-B (Rattus norvegicus, UniProt P19643); assay: in vivo; details: for MAO-B activity, brain / MAO-B activity, intestine / MAO-B activity, liver: two weeks; for inhibition at 0.02 mg/kg/day / inhibition at 0.4 mg/kg/day / inhibition at 0.8 mg/kg/day / inhibition at 0.05 mg/kg/day / inhibition at 0.1 mg/kg/day / inhibition at 0.2 mg/kg/day: rat
# Chain of MAO-B (P19643 whole entry): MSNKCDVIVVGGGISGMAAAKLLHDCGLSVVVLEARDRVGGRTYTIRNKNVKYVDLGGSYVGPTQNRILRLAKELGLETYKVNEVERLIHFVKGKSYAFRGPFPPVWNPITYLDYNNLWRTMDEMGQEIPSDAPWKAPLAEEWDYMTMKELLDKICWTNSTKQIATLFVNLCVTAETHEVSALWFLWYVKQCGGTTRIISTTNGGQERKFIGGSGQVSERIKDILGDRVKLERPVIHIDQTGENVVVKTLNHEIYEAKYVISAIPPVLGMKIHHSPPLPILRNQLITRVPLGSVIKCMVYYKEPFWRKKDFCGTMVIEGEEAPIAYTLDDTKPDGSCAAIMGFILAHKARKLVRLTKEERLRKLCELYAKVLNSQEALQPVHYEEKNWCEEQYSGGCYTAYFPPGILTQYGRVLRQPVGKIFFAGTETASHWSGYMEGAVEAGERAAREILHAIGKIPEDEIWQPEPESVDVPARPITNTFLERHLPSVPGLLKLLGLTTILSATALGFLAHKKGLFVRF
# Excerpt: as §1, §2, §3, §4
# [1] = rats
# Excerpt: as §1
# ALZET® pumps groups were weighed on the first and last day of the study. The oral administered groups were weighed on the first day and also on day 6 and 13 of the study.
# [2] = AZILECT Product Label, May 2006; cited from earlier work
# [3] = read-out: Percent of MAO-A inhibition, liver
# [4] = po, read-out: Percent of MAO-B inhibition, brain
# [5] = po, read-out: Percent of MAO-B inhibition, intestine
# [6] = po, read-out: Percent of MAO-B inhibition, liver
# [7] = sc, read-out: Percent of MAO-B inhibition, brain
# [8] = sc, read-out: Percent of MAO-B inhibition, intestine
# [9] = sc, read-out: Percent of MAO-B inhibition, liver
# Chain of MAO-A (P21396 whole entry, the tested form may be a part): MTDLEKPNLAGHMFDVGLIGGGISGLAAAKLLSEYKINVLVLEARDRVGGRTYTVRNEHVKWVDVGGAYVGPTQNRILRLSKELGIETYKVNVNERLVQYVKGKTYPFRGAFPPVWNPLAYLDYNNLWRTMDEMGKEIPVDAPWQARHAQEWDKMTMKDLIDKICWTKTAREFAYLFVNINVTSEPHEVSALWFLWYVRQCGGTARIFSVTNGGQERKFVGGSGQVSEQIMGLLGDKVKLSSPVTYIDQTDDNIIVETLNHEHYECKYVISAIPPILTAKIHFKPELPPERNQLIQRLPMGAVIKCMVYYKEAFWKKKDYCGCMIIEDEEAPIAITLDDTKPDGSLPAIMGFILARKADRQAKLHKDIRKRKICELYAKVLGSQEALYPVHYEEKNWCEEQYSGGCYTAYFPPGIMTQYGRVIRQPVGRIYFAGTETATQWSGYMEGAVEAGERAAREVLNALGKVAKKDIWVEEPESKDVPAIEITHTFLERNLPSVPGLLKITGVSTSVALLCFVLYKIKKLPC
smiles,measurement,setting,value
"C#CCN[C@@H]1CCc2ccccc21 [rasagiline, R(+)-N-propargyl-l-aminoindan]",inhibition at 0.8 mg/kg/day,"MAO-A; read-out: Percent of MAO-A inhibition, intestine",42%
same,inhibition at 0.02 mg/kg/day,MAO-A; [3],1%
same,inhibition at 0.05 mg/kg/day,MAO-A; [3],1%
same,inhibition at 0.1 mg/kg/day,MAO-A; [3],13%
same,inhibition at 0.2 mg/kg/day,MAO-A; [3],71%
same,inhibition at 0.4 mg/kg/day,MAO-A; [3],99%
same,inhibition at 0.8 mg/kg/day,MAO-A; [3],100%
same,"MAOB inhibition in the brain, ALZET pumps versus oral group",MAO-B; brain,No change
same,"MAO-B activity, brain","MAO-B; brain, oral, 0.02 mg/kg/day (salt)",1586 dpm
same,"MAO-B activity, brain","MAO-B; brain, oral, 0.05 mg/kg/day (salt)",494 dpm
same,"MAO-B activity, brain","MAO-B; brain, oral, 0.1 mg/kg/day (salt)",181 dpm
same,"MAO-B activity, brain","MAO-B; brain, oral, 0.2 mg/kg/day (salt)",69 dpm
same,"MAO-B activity, brain","MAO-B; brain, oral, 0.4 mg/kg/day (salt)",34 dpm
same,"MAO-B activity, brain","MAO-B; brain, oral, 0.8 mg/kg/day (salt)",9 dpm
same,"MAO-B activity, brain","MAO-B; brain, sc ALZET pumps, 0.02 mg/kg/day (salt)",1229 dpm
same,"MAO-B activity, brain","MAO-B; brain, sc ALZET pumps, 0.05 mg/kg/day (salt)",346 dpm
same,"MAO-B activity, brain","MAO-B; brain, sc ALZET pumps, 0.1 mg/kg/day (salt)",198 dpm
same,"MAO-B activity, brain","MAO-B; brain, sc ALZET pumps, 0.2 mg/kg/day (salt)",75 dpm
same,"MAO-B activity, brain","MAO-B; brain, sc ALZET pumps, 0.4 mg/kg/day (salt)",38 dpm
same,"MAOB inhibition in the intestine and liver, ALZET pumps compared with oral administration","MAO-B; intestine and liver, daily dose of up to 0.1 mg/kg",lower
same,maximal MAO-B inhibition in the intestine,"MAO-B; intestine, both routes (oral, ALZET pumps)",about 85%
same,"MAO-B activity, intestine","MAO-B; intestine, oral, 0.02 mg/kg/day (salt)",3633 dpm
same,"MAO-B activity, intestine","MAO-B; intestine, oral, 0.05 mg/kg/day (salt)",3115 dpm
same,"MAO-B activity, intestine","MAO-B; intestine, oral, 0.1 mg/kg/day (salt)",2493 dpm
same,"MAO-B activity, intestine","MAO-B; intestine, oral, 0.2 mg/kg/day (salt)",2424 dpm
same,"MAO-B activity, intestine","MAO-B; intestine, oral, 0.4 mg/kg/day (salt)",2108 dpm
same,"MAO-B activity, intestine","MAO-B; intestine, oral, 0.8 mg/kg/day (salt)",2105 dpm
same,"MAO-B activity, intestine","MAO-B; intestine, sc ALZET pumps, 0.02 mg/kg/day (salt)",8265 dpm
same,"MAO-B activity, intestine","MAO-B; intestine, sc ALZET pumps, 0.05 mg/kg/day (salt)",4346 dpm
same,"MAO-B activity, intestine","MAO-B; intestine, sc ALZET pumps, 0.1 mg/kg/day (salt)",3225 dpm
same,"MAO-B activity, intestine","MAO-B; intestine, sc ALZET pumps, 0.2 mg/kg/day (salt)",2391 dpm
same,"MAO-B activity, intestine","MAO-B; intestine, sc ALZET pumps, 0.4 mg/kg/day (salt)",1852 dpm
same,"MAO-B activity, intestine","MAO-B; intestine, sc ALZET pumps, 0.8 mg/kg/day (salt)",1879 dpm
same,"MAO-B activity, liver","MAO-B; oral, 0.02 mg/kg/day (salt)",1127 dpm
same,"MAO-B activity, liver","MAO-B; oral, 0.05 mg/kg/day (salt)",511 dpm
same,"MAO-B activity, liver","MAO-B; oral, 0.1 mg/kg/day (salt)",224 dpm
same,"MAO-B activity, liver","MAO-B; oral, 0.2 mg/kg/day (salt)",136 dpm
same,"MAO-B activity, liver","MAO-B; oral, 0.4 mg/kg/day (salt)",38 dpm
same,"MAO-B activity, liver","MAO-B; sc ALZET pumps, 0.02 mg/kg/day (salt)",1974 dpm
same,"MAO-B activity, liver","MAO-B; sc ALZET pumps, 0.05 mg/kg/day (salt)",912 dpm
same,"MAO-B activity, liver","MAO-B; sc ALZET pumps, 0.1 mg/kg/day (salt)",486 dpm
same,"MAO-B activity, liver","MAO-B; sc ALZET pumps, 0.2 mg/kg/day (salt)",312 dpm
same,"MAO-B activity, liver","MAO-B; sc ALZET pumps, 0.4 mg/kg/day (salt)",181 dpm
same,"MAO-B activity, liver","MAO-B; sc ALZET pumps, 0.8 mg/kg/day (salt)",166 dpm
same,inhibition at 0.02 mg/kg/day,MAO-B; [4],83%
same,inhibition at 0.4 mg/kg/day,MAO-B; [4],100%
same,inhibition at 0.8 mg/kg/day,MAO-B; [4],100%
same,inhibition at 0.02 mg/kg/day,MAO-B; [5],74%
same,inhibition at 0.05 mg/kg/day,MAO-B; [5],78%
same,inhibition at 0.1 mg/kg/day,MAO-B; [5],82%
same,inhibition at 0.2 mg/kg/day,MAO-B; [5],83%
same,inhibition at 0.4 mg/kg/day,MAO-B; [5],85%
same,inhibition at 0.8 mg/kg/day,MAO-B; [5],85%
same,inhibition at 0.02 mg/kg/day,MAO-B; [6],83%
same,inhibition at 0.05 mg/kg/day,MAO-B; [6],92%
same,inhibition at 0.8 mg/kg/day,MAO-B; [6],100%
same,inhibition at 0.4 mg/kg/day,MAO-B; [7],100%
same,inhibition at 0.8 mg/kg/day,MAO-B; [7],100%
same,inhibition at 0.02 mg/kg/day,MAO-B; [8],37%
same,inhibition at 0.05 mg/kg/day,MAO-B; [8],67%
same,inhibition at 0.1 mg/kg/day,MAO-B; [8],76%
same,inhibition at 0.2 mg/kg/day,MAO-B; [8],82%
same,inhibition at 0.4 mg/kg/day,MAO-B; [8],86%
same,inhibition at 0.8 mg/kg/day,MAO-B; [8],86%
same,inhibition at 0.02 mg/kg/day,MAO-B; [9],67%
same,inhibition at 0.05 mg/kg/day,MAO-B; [9],85%
same,inhibition at 0.1 mg/kg/day,MAO-B; [9],92%
same,weight gain,"[1]; 0.8 mg/kg/day delivered by ALZET pumps, first to last day of two-week study",1.3%
same,weight gain,[1]; all oral and ALZET pump groups except 0.8 mg/kg/day by ALZET pumps,6-9%
same,absolute bioavailability,[2],about 36%
